Laboratory results from US9464064B2, “HCV helicase inhibitors and methods of use thereof” (University of Kansas, priority 2011, dated 2016).
Like-named read-outs stand apart in the source and are kept apart here.

What was measured:
[1] = target: T1, HCV NS3 helicase NS3h_1b(con1) (Hepatitis C virus genotype 1b, UniProt Q9WMX2); test: biochemical; format: biochemical, hepatitis C virus genotype 1b(con1)
T1 construct: truncated C-terminally His-tagged NS3 proteins lacking the N-terminal protease, called NS3h; His-tag (C); made in house
Text: All oligonucleotides were purchased from Integrated DNA Technologies (IDT, Coralville, Iowa). The partially duplex DNA substrates used in MBHAs consisted of a helicase substrate forming 25 base pairs and consists of a 45-mer bottom strand 5′-GCTCCCCGTTCATCGATTGGGGAGC(T)20-3′ (SEQ ID NO:1) and the 25-mer HCV top strand 5′-Cy5-GCTCCCCAATCGATGAACGGGGAGC-IBRQ-3′ (SEQ ID NO:2). The 19 base pair RNA substrate used in MBHAs was composed of a 39 nucleotide long bottom strand 5′-AGU GCC UUG ACG AUA CAG C(U)20-3′ (SEQ ID NO:3) and the 24 nucleotide long top strand 5′-Tye^665-AGUGCGCUGUAUCGUCAAGGCACU-IBRQSp-3′ (SEQ ID NO:4). Underlined areas denote hairpin-forming regions. DNA and RNA substrates were annealed and purified as described previously (Belon & Frick (2008) BioTechniques 45:433-40, 442).
The cloning, expression, and purification of His-tagged recombinant HCV NS3 protein have been described previously (Lam, et al. (20030 J. Virol. 77:3950-61; Heck, et al. (2008) Antimicrob. Agents Chemother. 52:1901-11; Frick et al. (2010) Methods Mol. Biol. 587:223-233; Belon, et al. & Frick (2009) J. Mol. Biol. 388:851-864).
All molecular beacon-based helicase assays (MBHAs) were performed according to known methods (Belon & Frick (2008) supra; Belon & Frick (2009) supra). […] In each flat, black 384-well plate, 56 compounds were tested, in triplicate, along with three negative controls (DMSO only), three positive controls (500 nM dT20), and two wells with no enzyme. Fluorescence was read before ATP (F0) addition and 30 minutes after ATP was added to 1 mM (F30) using a Tecan Infinite M200 fluorescence microplate reader with excitation and emission wavelengths set to 643 and 670 nm, respectively. Percent inhibition was calculated with equation 1, and compound interference in the MBHA was calculated with equation 2.
To monitor helicase reaction kinetics and to calculate IC50 values, MBHAs were performed in 60 μL in white ½ area 96-well plates and measured in a Thermo Varioscan Multimode reader (Thermo Scientific) using the 643 nm excitation wavelength and 667 emission wavelengths. Reactions were again performed by first incubating all components except for ATP for two minutes, then initiated by injecting in 1/10 volume of ATP such that the final concentration of all components was as noted above. Conditions were as described above except that 5% v/v DMSO was present in each assay. Initial reaction velocities were calculated by fitting first-order decay equation to data obtained after ATP addition and calculating an initial velocity form the resulting amplitude and rate constant.
[formula] where, v0 is the velocity observed in DMSO-only controls inhibition, h is the Hillslope coefficient, [I] is the concentration of test compound.

MBHA DNA substrate = test: Modified FID assay, SYBR Green I; format: binding; conditions: for DNA binding (%): SYBR Green I-FID, average (±SD) percent bound at 100 μM
Method: A modified FID assay, in which ethidium bromide was replaced with SYBR Green I (Invitrogen), was used to estimate a compounds affinity for the MBHA substrate. Reactions were performed as described above except that the DNA substrate was present at 0.32 μM, ethidium bromide was absent, and SYBER Green was present at (0.68 μM). Data were normalized as described above and fit to concentration-response equation using GraphPad Prism software. Titrations with each compound were performed in triplicate, and EC50 values from three independent titrations are reported ±standard deviations.

[2] = genotype 1b (con1), read-out: Target Potency MBHA (IC50 avg., μM) 1b (con1)
[3] = SYBR Green, read-out: FID (SG) EC50 (converted)
[4] = MBHA, DNA unwinding, mean ± SD of three titrations, read-out: Helicase IC50
[5] = standard HCV helicase MBHA (Table 9), read-out: DNA Unwinding IC50
[6] = DNA Unwinding IC50, standard HCV helicase MBHA (Table 9)
[7] = Helicase IC50, MBHA, DNA unwinding, mean ± SD of three titrations
[8] = Target Potency MBHA (IC50 avg., μM) 1b (con1), genotype 1b (con1)

T1 sequence (Q9WMX2 1192-1657): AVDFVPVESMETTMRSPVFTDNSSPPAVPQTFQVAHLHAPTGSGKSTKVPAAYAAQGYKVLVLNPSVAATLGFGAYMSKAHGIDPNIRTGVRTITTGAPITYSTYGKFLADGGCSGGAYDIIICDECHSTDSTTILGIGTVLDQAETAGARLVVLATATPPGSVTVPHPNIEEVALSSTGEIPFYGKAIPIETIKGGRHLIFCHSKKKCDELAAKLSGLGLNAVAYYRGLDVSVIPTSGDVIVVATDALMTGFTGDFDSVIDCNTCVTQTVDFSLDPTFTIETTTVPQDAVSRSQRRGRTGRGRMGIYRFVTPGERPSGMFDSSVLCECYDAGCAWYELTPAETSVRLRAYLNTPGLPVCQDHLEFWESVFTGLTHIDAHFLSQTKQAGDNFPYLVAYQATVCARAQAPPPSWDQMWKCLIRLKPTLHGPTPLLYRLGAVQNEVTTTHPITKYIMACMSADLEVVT

Row | SMILES | IC50 [1, 2] | DNA binding (%) (MBHA DNA substrate) | FID (SG) % Displaced @ 100 μM (MBHA DNA substrate; SYBR Green) | EC50 (MBHA DNA substrate; [3]) | IC50 [1, 4] | IC50 [1, 5] | IC50 [1, 6] | IC50 [1, 7] | IC50 [1, 8] | EC50 (MBHA DNA substrate; FID, mean ± SD, read-out: DNA Binding (SYBR Green I) EC50)
1 | Cc1ccc2nc(-c3ccc4nc(-c5ccc(NC(=O)c6ccc7ncoc7c6)cc5)sc4c3)sc2c1S(=O)(=O)O | 3.6 ± 1 µM |  |  |  |  |  |  |  |  | 
2 | Cc1ccc2nc(-c3ccc4nc(-c5ccc(NS(=O)(=O)c6ccc(C(F)(F)F)cc6)cc5)sc4c3)sc2c1S(=O)(=O)O | 32 ± 16 µM |  |  |  |  |  |  |  |  | 
3 | Cc1ccc2nc(-c3ccc(NC(=O)c4ccc(C(F)(F)F)cc4)cc3)sc2c1S(=O)(=O)O | > 100 µM |  |  |  |  |  |  |  |  | 
4 | Cc1ccc2nc(-c3ccc(NC(=O)c4ccc(N)cc4)cc3)sc2c1S(=O)(=O)O | 69 ± 26 µM |  |  |  |  |  |  |  |  | 
5 | Cc1ccc2nc(-c3ccc(NC(=O)c4ccc(NS(=O)(=O)c5ccccc5)cc4)cc3)sc2c1S(=O)(=O)O | > 100 µM |  |  |  |  |  |  |  |  | 
6 | Cc1ccc2nc(-c3ccc(NC(=S)Nc4ccccc4Br)cc3)sc2c1 | > 100 µM |  |  |  |  |  |  |  |  | 
7 | Cc1ccc2nc(-c3ccc4nc(NC(=O)c5ccc6ncoc6c5)sc4c3)sc2c1 | 60 ± 6.1 µM |  |  |  |  |  |  |  |  | 
8 | Cc1ccc2nc(-c3ccc4nc(-c5ccc(NC(=O)c6ccccc6)cc5)sc4c3)sc2c1S(=O)(=O)O [Compound 5, 2′-(4-benzamidophenyl)-6-methyl-[2,6′-bibenzo[d]thiazole]-7-sulfonic acid] | 10.7 ± 1.5 µM | 31 ± 13% | 31 ± 13% | > 100 µM | 11 ± 1.5 µM | 11 ± 2 µM |  |  |  | 
9 | COc1ccc(C(=O)Nc2ccc(-c3nc4ccc(-c5nc6ccc(C)c(S(=O)(=O)O)c6s5)cc4s3)cc2)cc1 [Compound 8, 2′-(4-(4-methoxybenzamido)phenyl)-6-methyl-[2,6′-bibenzo[d]thiazole]-7-sulfonic acid] |  | 35 ± 10% | 35 ± 10% | > 100 µM |  |  | 10 ± 3 µM | 10 ± 2.6 µM | 10 ± 2.6 µM | 
10 | COC(=O)c1ccc(C(=O)Nc2ccc(-c3nc4ccc(-c5nc6ccc(C)c(S(=O)(=O)O)c6s5)cc4s3)cc2)cc1 [Compound 9, 2′-(4-(4-(methoxycarbonyl)benzamido)phenyl)-6-methyl-[2,6′-bibenzo[d]thiazole]-7-sulfonic acid] | 9.7 ± 4.6 µM | 28 ± 10% | 28 ± 10% | > 100 µM | 9.7 ± 4.6 µM | 10 ± 5 µM |  |  |  | 
11 | Cc1ccc2nc(-c3ccc4nc(-c5ccc(NC(=O)c6ccc(Cl)cc6)cc5)sc4c3)sc2c1S(=O)(=O)O [Compound 10, 2′-(4-(4-chlorobenzamido)phenyl)-6-methyl-[2,6′-bibenzo[d]thiazole]-7-sulfonic acid] |  | 67 ± 17% | 67 ± 17% | 31 ± 15 µM |  |  | 3 µM | 3.4 ± 0.3 µM | 3.4 ± 0.3 µM | 
12 | Cc1ccc(C(=O)Nc2ccc(-c3nc4ccc(-c5nc6ccc(C)c(S(=O)(=O)O)c6s5)cc4s3)cc2)cc1 [Compound 11, 6-methyl-2′-(4-(4-methylbenzamido)phenyl)-[2,6′-bibenzo[d]thiazole]-7-sulfonic acid] | 3.3 ± 0.3 µM | 50 ± 15% | 50 ± 15% | > 100 µM | 3.3 ± 0.3 µM | 3 µM |  |  |  | > 100 µM
13 | Cc1ccc2nc(-c3ccc4nc(-c5ccc(NC(=O)c6ccc(N(C)C)cc6)cc5)sc4c3)sc2c1S(=O)(=O)O [Compound 14, 2′-(4-(4-(dimethylamino)benzamido)phenyl)-6-methyl-[2,6′-bibenzo[d]thiazole]-7-sulfonic acid] | 11 ± 6.7 µM | 44 ± 4% | 44 ± 4% | > 100 µM | 11 ± 6.7 µM | 11 ± 7 µM |  |  |  | 
14 | Cc1ccc2nc(-c3ccc4nc(-c5ccc(NC(=O)c6ccc(NC(=O)OCC7c8ccccc8-c8ccccc87)cc6)cc5)sc4c3)sc2c1S(=O)(=O)O [Compound 16, 2′-(4-(4-((((9H-fluoren-9-yl)methoxy)carbonyl)amino)benzamido)phenyl)-6-methyl-[2,6′-bibenzo[d]thiazole]-7-sulfonic acid] | 5.4 ± 1 µM | 76 ± 5% | 76 ± 5% | 6 ± 2 µM | 5.4 ± 1 µM | 5 ± 1 µM |  |  |  | 
15 | Cc1ccc2nc(-c3ccc4nc(-c5ccc(NC(=O)c6ccccc6C(F)(F)F)cc5)sc4c3)sc2c1S(=O)(=O)O [Compound 19, 6-methyl-2′-(4-(2-(trifluoromethyl)benzamido)phenyl)-[2,6′-bibenzo[d]thiazole]-7-sulfonic acid] | 14.1 ± 1 µM | 30 ± 15% | 30 ± 15% | > 100 µM | 14 ± 1 µM | 14 ± 1 µM |  |  |  | 
16 | Cc1ccc2nc(-c3ccc4nc(-c5ccc(NC(=O)c6cccc(C(F)(F)F)c6)cc5)sc4c3)sc2c1S(=O)(=O)O [Compound 20, 6-methyl-2′-(4-(3-(trifluoromethyl)benzamido)phenyl)-[2,6′-bibenzo[d]thiazole]-7-sulfonic acid] | 19.7 ± 12 µM | 46 ± 10% | 46 ± 10% | > 100 µM | 20 ± 12 µM |  |  |  |  | 
17 | Cc1ccc2nc(-c3ccc4nc(-c5ccc(NC(=O)c6c(F)cccc6C(F)(F)F)cc5)sc4c3)sc2c1S(=O)(=O)O [Compound 21, 2′-(4-(2-fluoro-6-(trifluoromethyl)benzamido)phenyl)-6-methyl-[2,6′-bibenzo[d]thiazole]-7-sulfonic acid] | 16.8 ± 6 µM | 66 ± 40% | 66 ± 40% | 64 ± 34 µM | 17 ± 6 µM | 17 ± 6 µM |  |  |  | 
18 | Cc1ccc2nc(-c3ccc4nc(-c5ccc(NC(=O)c6cccc(C(F)(F)F)c6F)cc5)sc4c3)sc2c1S(=O)(=O)O [Compound 22, 2′-(4-(2-fluoro-3-(trifluoromethyl)benzamido)phenyl)-6-methyl-[2,6′-bibenzo[d]thiazole]-7-sulfonic acid] | 9.2 ± 3 µM | 49 ± 27% | 49 ± 27% | > 100 µM | 9.2 ± 3 µM | 9 ± 3 µM |  |  |  | 
19 | Cc1ccc2nc(-c3ccc4nc(-c5ccc(NC(=O)c6cccnc6)cc5)sc4c3)sc2c1S(=O)(=O)O [Compound 31, 6-methyl-2′-(4-(nicotinamido)phenyl)-[2,6′-bibenzo[d]thiazole]-7-sulfonic acid] |  | 15 ± 10% | 15 ± 10% | > 100 µM |  |  |  |  |  | 
20 | Cc1ccc2nc(-c3ccc4nc(-c5ccc(NC(=O)c6ccncc6)cc5)sc4c3)sc2c1S(=O)(=O)O [Compound 32, 2′-(4-(isonicotinamido)phenyl)-6-methyl-[2,6′-bibenzo[d]thiazole]-7-sulfonic acid] |  | 19 ± 7% | 19 ± 7% | > 100 µM |  |  |  |  |  | 
21 | Cc1ccc2nc(-c3ccc4nc(-c5ccc6nc(-c7ccc(N)cc7)sc6c5)sc4c3)sc2c1S(=O)(=O)O [Compound P3, 2″-(4-aminophenyl)-6-methyl-[2,6′:2′,6″-terbenzo[d]thiazole]-7-sulfonic acid] |  |  |  |  | 0.9 ± 0.1 µM |  |  |  |  | 
